What was measured:
[1] = test system: UM16 cell line; experiment: Nascent RNA sequencing (Bru-seq), gene fold change; type: cell-based; conditions: 5 μM, 4 hours
From the text: Consistent with this observation, there are also massive metabolite pathways influenced including starch and sucrose metabolism, glycolysis and gluconeogenesis, purine metabolism, pyrimidine metabolism, N-glycan biosynthesis, etc.

[2] = test system: BxPc3 cells; experiment: MTT assay, cancer cell growth inhibition (BxPC-3); type: cell-based; conditions: Homo sapiens, BXPC-3, 168 h, 7 days of treatment
Protocol: Measurement of cancer cell growth inhibition of the compounds of invention Cytotoxicity of the compounds was assessed by MTT assay. In brief, MIA PaCa-2 cells or BxPc3 cells were seeded in 96-well microtitre plates at density of 200 cells/well. After overnight attachment, cells were treated with compounds at indicated concentration. After 7 days of treatment, MTT solution (3 mg/ml, 20 μl) was added to each well and cells were incubated for 3 h at 37° C. After incubation, media from each well was removed and the dark blue formazan crystals formed by live cells were dissolved in DMSO ([…] per well). The absorbance intensity was measured at 570 nm on a microplate reader (Molecular Devices, Sunnyvale, Calif., USA). The half maximal inhibitory concentration (IC50) value were calculated using 4 or 6 dots curve plotted with Cumulative Gaussian equation or Log(inhibitor) vs. response equation in GraphPad Prism.

## CCOC(=O)[C@@H]1CCCN(S(=O)(=O)c2ccc(S(=O)(=O)N(CC)CC)cc2)C1 [DX2-201, ethyl (R)-1-((4-(N,N-diethylsulfamoyl)phenyl)sulfonyl)piperidine-3-carboxylate]
[1]; non-coding RNA, downregulated
  Fold change AC008521.2: 0.1876
  Fold change AC019257.2: 0.2345
  Fold change AC091133.4: 0.2345
  Fold change AC092916.2: 0.1706
  Fold change AC106037.1: 0.2345
  Fold change AL096870.2: 0.02465
  Fold change BX679664.2: 0.1876
  Fold change C1orf50: 0.1876
  Fold change MIR545: 0.1876
  Fold change MIR5000: 0.05752
  Fold change RN7SL128P: 0.1876
  Fold change RN7SL388P: 0.2085
  Fold change RN7SL589P: 0.2165
  Fold change RN7SL833P: 0.2345
  Fold change RNU1-19P: 0.1564
  Fold change RNU1-73P: 0.09381
  Fold change RNU6-122P: 0.04314
  Fold change RNU6-398P: 0.03451
  Fold change RNU6-519P: 0.1564
  Fold change RNU6-548P: 0.05752
  Fold change SNORA73: 0.2345
  Fold change TERC: 0.04314
  Fold change Y_RNA: 0.02876
  Fold change Z99127.3: 0.1876
  Fold change ZBTB40-IT1: 0.2345
[1]; non-coding RNA, upregulated
  Fold change AC007686.1: 2.01
  Fold change AC007952.4: 2.345
  Fold change AC008687.3: 2.033
  Fold change AC034198.2: 2.345
  Fold change AC105020.4: 1.782
  Fold change AC139887.1: 2.064
  Fold change AL136982.3: 2.217
  Fold change AL161729.3: 1.993
  Fold change AL627171.1: 1.841
  Fold change AL645939.5: 1.876
  Fold change AP001527.2: 2.217
  Fold change AP001619.1: 1.62
  Fold change AP003168.2: 1.689
  Fold change DPRXP4: 3.19
  Fold change EIF5AP3: 1.876
  Fold change HMGN1P15: 2.111
  Fold change RNA5SP379: 2.814
  Fold change RNU6-182P: 20.4
  Fold change RNU6-396P: 1.876
  Fold change RNU6-531P: 2.814
  Fold change RNU6-564P: 2.814
  Fold change RNU6-1272P: 25.5
  Fold change RNY3P2: 1.876
  Fold change SNORD124: 1.876
  Fold change Y_RNA: 15.3
[1]; protein-coding, downregulated
  Fold change A2ML1: 0.582
  Fold change ARRDC4: 0.4315
  Fold change BDKRB2: 0.6044
  Fold change DGAT2: 0.5129
  Fold change DPAGT1: 0.6034
  Fold change FAM86C1: 0.6053
  Fold change FAM86HP: 0.5946
  Fold change FAM200A: 0.5595
  Fold change FOXA2: 0.6075
  Fold change G0S2: 0.4666
  Fold change GGCT: 0.6012
  Fold change HLF: 0.4727
  Fold change INTS5: 0.4515
  Fold change L3HYPDH: 0.6301
  Fold change PCED1A: 0.576
  Fold change PLLP: 0.5843
  Fold change POLR2J4: 0.4775
  Fold change RRS1: 0.5686
  Fold change SCARNA5: 0.4376
  Fold change SLC5A6: 0.6234
  Fold change SNHG21: 0.5497
  Fold change SNORA62: 0.5968
  Fold change SNORA71C: 0.6023
  Fold change TMED1: 0.6232
  Fold change TXNIP: 0.4997
[1]; protein-coding, upregulated
  Fold change ANKRD37: 2.182
  Fold change ARG2: 2.569
  Fold change ARHGAP30: 1.728
  Fold change ARRDC3: 1.707
  Fold change BNIP3L: 1.723
  Fold change CCNG2: 1.668
  Fold change CREBRF: 1.676
  Fold change ERRFI1: 1.77
  Fold change FOXO6: 1.954
  Fold change HDAC5: 1.811
  Fold change KLHL24: 2.336
  Fold change LOXL4: 1.73
  Fold change MXD4: 1.812
  Fold change MXI1: 1.785
  Fold change NDRG1: 2.874
  Fold change PDK1: 1.779
  Fold change PPP1R3C: 1.699
  Fold change PRDM1: 1.748
  Fold change RNF122: 1.915
  Fold change SEMA3B: 1.668
  Fold change SOX12: 1.903
  Fold change UPRT: 1.74
  Fold change VLDLR: 1.741
  Fold change YPEL1: 1.706
  Fold change ZNF546: 1.757
[2]
  IC50: 0.63 ± 0.24 µM

— patent US20230212122A1, “MITOCHONDRIAL TARGETING COMPOUNDS FOR THE TREATMENT OF ASSOCIATED DISEASES” (The Regents of the University of Michigan, priority 2020, published 2023)
